# Target: T1, human vasopressin V2 receptor subtype (Homo sapiens, UniProt P30518)
# T1 construct: host or cells: CHO cells, stably transfected (pZeoSV vector)
# Test: Vasopressin binding in CHO cell membranes expressing human vasopressin V2 subtype receptors ([3H]arginine vasopressin radioligand binding)
# Settings: 100 nM
# Outline: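 Membranes from CHO cells stably expressing human V2 receptor (25 to 50 μg protein/well) incubated 60 min at room temperature with [3H]arginine vasopressin in Tris-HCl pH 7.4 buffer with MgCl2, BSA and protease inhibitors. Filtration, scintillation counting; percent inhibition at one concentration or IC50 (nM).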
# T1 sequence (P30518 whole entry): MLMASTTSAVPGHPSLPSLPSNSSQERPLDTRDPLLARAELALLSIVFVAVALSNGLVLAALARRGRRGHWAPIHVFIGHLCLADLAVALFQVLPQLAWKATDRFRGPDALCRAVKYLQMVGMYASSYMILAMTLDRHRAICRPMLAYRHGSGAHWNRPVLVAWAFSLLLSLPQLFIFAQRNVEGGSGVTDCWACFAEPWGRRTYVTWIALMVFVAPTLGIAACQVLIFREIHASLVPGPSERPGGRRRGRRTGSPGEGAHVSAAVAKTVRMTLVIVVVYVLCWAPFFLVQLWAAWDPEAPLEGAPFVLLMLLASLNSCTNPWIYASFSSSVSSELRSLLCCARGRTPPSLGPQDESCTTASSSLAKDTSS
SMILES,inhibition at 0.1 µM [%],V2 % inhibition @ 100 nM [%]
"COc1cc(C(=O)N2Cc3ccc(C(=O)NCc4cccnc4)n3Cc3ccccc32)ccc1-c1ccccc1C [Example 41, 10-[(2-Methoxy-2′-methyl-[1,1′-biphenyl]-4-yl)carbonyl]-N-(3-pyridinylmethyl)-10,11-dihydro-5H-pyrrolo[2,1-c][1,4]benzodiazepine-3-carboxamide]",16,–
"COc1ccccc1-c1ccc(C(=O)N2Cc3ccc(C(=O)N(C)CCc4ccncc4)n3Cc3ccccc32)cc1C [Example 126, 10-[(2′-Methoxy-2-methyl-[1,1′-biphenyl]-4-yl)carbonyl]-N-methyl-N-[2-(4-pyridinyl)ethyl]-10,11-dihydro-5H-pyrrolo[2,1-c][1,4]benzodiazepine-3-carboxamide]",5,–
"COc1cccc(-c2cc(OC)c(C(=O)N3Cc4ccc(C(=O)N5CCN(c6ccncc6)CC5)n4Cc4ccccc43)cc2Cl)c1 [Example 120, {10-[(6-Chloro-3,3′-dimethoxy-[1,1′-biphenyl]-4-yl)carbonyl]-10,11-dihydro-5H-pyrrolo[2,1-c][1,4]benzodiazepin-3-yl}[4-(4-pyridinyl)-1-piperazinyl]methanone]",16,–
"COc1cccc(-c2cc(OC)c(C(=O)N3Cc4ccc(C(=O)N(C)CCc5ccncc5)n4Cc4ccccc43)cc2Cl)c1 [Example 133, 10-[(6-Chloro-3,3′-dimethoxy-[1,1′-biphenyl]-4-yl)carbonyl]-N-methyl-N-[2-(4-pyridinyl)ethyl]-10,11-dihydro-5H-pyrrolo[2,1-c][1,4]benzodiazepine-3-carboxamide]",15,–
"O=C(NCCc1ccccn1)c1ccc2n1Cc1ccccc1N(C(=O)c1ccc(-c3cccc4ccccc34)cc1Cl)C2 [Example 60, 10-[2-Chloro-4-(naphthalen-1-yl)benzoyl]-N-[2-(2-pyridinyl)ethyl]-10,11-dihydro-5H-pyrrolo[2,1-c][1,4]benzodiazepine-3-carboxamide]",15,–
"Cc1cc(C(=O)N2Cc3ccc(C(=O)NCc4ccccn4)n3Cc3ccccc32)ccc1-c1ccccc1C(F)(F)F [Example 35, 10-{[2-Methyl-2′-trifluoromethyl-[1,1′-biphenyl]-4-yl]carbonyl}-N-(2-pyridinylmethyl)-10,11-dihydro-5H-pyrrolo[2,1-c][1,4]benzodiazepine-3-carboxamide]",14,–
"Cc1ccccc1-c1ccc(C(=O)N2Cc3ccc(C(=O)NCc4cccnc4)n3Cc3ccccc32)cc1C [Example 37, 10-[(2,2′-Dimethyl-[1,1′-biphenyl]-4-yl)carbonyl]-N-(3-pyridinylmethyl)-10,11-dihydro-5H-pyrrolo[2,1-c][1,4]benzodiazepine-3-carboxamide]",7,–
"COc1cccc(-c2ccc(C(=O)N3Cc4ccc(C(=O)NCc5ccccn5)n4Cc4ccccc43)cc2OC)c1 [Example 33, 10-[(2,3′-Dimethoxy-[1,1′-biphenyl]-4-yl)carbonyl]-N-(2-pyridinylmethyl)-10,11-dihydro-5H-pyrrolo[2,1-c][1,4]benzodiazepine-3-carboxamide]",21,–
"COc1cccc(-c2ccc(C(=O)N3Cc4ccc(C(=O)NCc5cccnc5)n4Cc4ccccc43)cc2OC)c1 [Example 46, 10-[(2,3′-Dimethoxy-[1,1′-biphenyl]-4-yl)carbonyl]-N-(3-pyridinylmethyl)-10,11-dihydro-5H-pyrrolo[2,1-c][1,4]benzodiazepine-3-carboxamide]",8,–
"COc1ccccc1-c1ccc(C(=O)N2Cc3ccc(C(=O)NCCc4ccccn4)n3Cc3ccccc32)cc1C [Example 49, 10-[(2′-Methoxy-2-methyl-[1,1′-biphenyl]-4-yl)carbonyl]-N-[2-(2-pyridinyl)ethyl]-10,11-dihydro-5H-pyrrolo[2,1-c][1,4]benzodiazepine-3-carboxamide]",26,–
"COc1cccc(-c2ccc(C(=O)N3Cc4ccc(C(=O)NCc5cccnc5)n4Cc4ccccc43)cc2C)c1 [Example 38, 10-[(3′-Methoxy-2-methyl-[1,1′-biphenyl]-4-yl)carbonyl]-N-(3-pyridinylmethyl)-10,11-dihydro-5H-pyrrolo[2,1-c][1,4]benzodiazepine-3-carboxamide]",21,–
"CN(Cc1cccnc1)C(=O)c1ccc2n1Cc1ccccc1N(C(=O)c1ccc(-c3cccc4ccccc34)cc1Cl)C2 [Example 111, 10-[2-Chloro-4-(naphthalen-1-yl)benzoyl]-N-methyl-N-(3-pyridinylmethyl)-10,11-dihydro-5H-pyrrolo[2,1-c][1,4]benzodiazepine-3-carboxamide]",23,–
"COc1ccccc1-c1ccc(C(=O)N2Cc3ccc(C(=O)NCc4ccccn4)n3Cc3ccccc32)cc1 [Example 26, 10-[(2′-Methoxy-[1,1′-biphenyl]-4-yl)carbonyl]-N-(2-pyridinylmethyl)-10,11-dihydro-5H-pyrrolo[2,1-c][1,4]benzodiazepine-3-carboxamide]",23,–
COc1cccc(-c2ccc(C(=O)N3Cc4ccc(C(=O)N(C)Cc5cccnc5)n4Cc4ccccc43)cc2OC)c1 [Example 110],–,32
COc1cc(C(=O)N2Cc3ccc(C(=O)N4CCN(c5ccccn5)CC4)n3Cc3ccccc32)ccc1-c1cccc2ccccc12 [Example 83],–,22
"COc1ccccc1-c1ccc(C(=O)N2Cc3ccc(C(=O)NCc4cccnc4)n3Cc3ccccc32)cc1OC [Example 45, 10-[(2,2′-Dimethoxy-[1,1′-biphenyl]-4-yl)carbonyl]-N-(3-pyridinylmethyl)-10,11-dihydro-5H-pyrrolo[2,1-c][1,4]benzodiazepine-3-carboxamide]",19,–
"COc1ccccc1-c1ccc(C(=O)N2Cc3ccc(C(=O)N(C)CCc4ccccn4)n3Cc3ccccc32)cc1OC [Example 64, 10-[(2,2′-Dimethoxy-[1,1′-biphenyl]-4-yl)carbonyl]-N-methyl-N-[2-(2-pyridinyl)ethyl]-10,11-dihydro-5H-pyrrolo[2,1-c][1,4]benzodiazepine-3-carboxamide]",13,–
"COc1cc(C(=O)N2Cc3ccc(C(=O)N4CCN(c5ccncc5)CC4)n3Cc3ccccc32)ccc1-n1c(C)ccc1C [Example 146, {10-[4-(2,5-Dimethyl-1H-pyrrol-1-yl)-3-methoxybenzoyl]-10,11-dihydro-5H-pyrrolo[2,1-c][1,4]benzodiazepin-3-yl}[4-(pyridin-4-yl)-1-piperazinyl]methanone]",15,–
"O=C(NCc1cccnc1)c1ccc2n1Cc1ccccc1N(C(=O)c1ccc(-c3cccc4ccccc34)cc1Cl)C2 [Example 47, 10-[2-Chloro-4-(naphthalen-1-yl)benzoyl]-N-(3-pyridinylmethyl)-10,11-dihydro-5H-pyrrolo[2,1-c][1,4]benzodiazepine-3-carboxamide]",6,–
"COc1cccc(-c2ccc(C(=O)N3Cc4ccc(C(=O)N5CCN(c6ccncc6)CC5)n4Cc4ccccc43)cc2C)c1 [Example 115, {10-[(3′-Methoxy-2-methyl-[1,1′-biphenyl]-4-yl)carbonyl]-10,11-dihydro-5H-pyrrolo[2,1-c][1,4]benzodiazepin-3-yl}[4-(4-pyridinyl)-1-piperazinyl]methanone]",8,–
"COc1ccccc1-c1ccc(C(=O)N2Cc3ccc(C(=O)NCCc4ccccn4)n3Cc3ccccc32)cc1OC [Example 58, 10-[(2,2′-Dimethoxy-[1,1′-biphenyl]-4-yl)carbonyl]-N-[2-(2-pyridinyl)ethyl]-10,11-dihydro-5H-pyrrolo[2,1-c][1,4]benzodiazepine-3-carboxamide]",22,–
"COc1ccccc1-c1ccc(C(=O)N2Cc3ccc(C(=O)N4CCCCC4c4cccnc4)n3Cc3ccccc32)cc1OC (stereo not shown) [Example 141, {10-[(2,2′-Dimethoxy-[1,1′-biphenyl]-4-yl)carbonyl]-10,11-dihydro-5H-pyrrolo[2,1-c][1,4]benzodiazepin-3-yl}[2-(3-pyridinyl)-1-piperidinyl]methanone]",40,–

# Source: US7064120B2, “Tricyclic pyridyl carboxamides and derivatives thereof tocolytic oxytocin receptor antagonists” (Wyeth, priority 2001, dated 2006)
